Source: patent US4188321A, “25-Desacetyl rifamycins” (Gruppo Lepetit S.p.A., priority 1966, dated 1980)
In brackets after ≈: the same amount, converted by molar mass. Like-named read-outs stand apart in the source and are kept apart here.

What was measured:
[1] = solubility in buffer solution; type: physicochemical; conditions: pH 7.5, aqueous buffer
Procedure: Said solubilities are given in g. of rifamycin % ml. of buffer solution (pH=7,5 and t=22° C.). DA means desacetyl.

in vivo = conditions: mouse

| Compound | solubility ([1]; buffer) [mg/mL] | LD50 (in vivo; ip, acute toxicity, mice) [mg/kg] | LD50 (in vivo; iv) [mg/kg] | solubility ([1]; buffer solution, pH = 7,5, 22° C., read-out: Solubility) [mg/mL] |
| --- | --- | --- | --- | --- |
| COC1C=COC2(C)Oc3c(C)c(O)c4c(O)c(c(C=O)c(O)c4c3C2=O)NC(=O)C(C)=CC=CC(C)C(O)C(C)C(O)C(C)C(O)C1C (stereo not shown) [25-DA-3-formyl-rifamycin SV] | 34.3 (≈ 50200 µM) | 550 | – | – |
| COC1C=COC2(C)Oc3c(C)c(O)c4c(O)c(c(C=NN5CCN(C)CC5)c(O)c4c3C2=O)NC(=O)C(C)=CC=CC(C)C(O)C(C)C(O)C(C)C(O)C1C (stereo not shown) [25-DA-3-(4-methyl-piperazinyl-iminomethyl)-rifamycin SV] | 7.6 (≈ 9730 µM) | 850 | – | – |
| CCN(CC)Cc1c2c(O)c3c(O)c(C)c4c(c3c1O)C(=O)C(C)(OC=CC(OC)C(C)C(OC(C)=O)C(C)C(O)C(C)C(O)C(C)C=CC=C(C)C(=O)N2)O4 (stereo not shown) [3-diethylaminomethyl-rifamycin SV, reference compound] | 0.42 (≈ 536 µM) | – | – | – |
| CCN(CC)C(=O)COc1cc2c(O)c3c(O)c(C)c4c(c13)C(=O)C(C)(OC=CC(OC)C(C)C(O)C(C)C(O)C(C)C(O)C(C)C=CC=C(C)C(=O)N2)O4 (stereo not shown) [25-DA-rifamycin B diethylamide] | – | – | 600 | – |
| COC1C=COC2(C)Oc3c(C)c(O)c4c(O)c(c(CN5CCCC5)c(O)c4c3C2=O)NC(=O)C(C)=CC=CC(C)C(O)C(C)C(O)C(C)C(O)C1C (stereo not shown) [25-DA-3-pyrrolidino-methyl-rifamycin SV] | 2.8 (≈ 3790 µM) | – | – | – |
| CON=Cc1c2c(O)c3c(O)c(C)c4c(c3c1O)C(=O)C(C)(OC=CC(OC)C(C)C(OC(C)=O)C(C)C(O)C(C)C(O)C(C)C=CC=C(C)C(=O)N2)O4 (stereo not shown) [3-methoximinomethyl-rifamycin SV, reference compound] | 0.15 (≈ 199 µM) | – | – | – |
| COC1C=COC2(C)Oc3c(C)c(O)c4c(O)c(c(C=O)c(O)c4c3C2=O)NC(=O)C(C)=CC=CC(C)C(O)C(C)C(O)C(C)C(OC(C)=O)C1C (stereo not shown) [3-formyl-rifamycin SV, reference compound] | 6.4 (≈ 8820 µM) | 300 | – | – |
| COC1C=COC2(C)Oc3c(C)c(O)c4c(O)c(c(CN5CCCC5)c(O)c4c3C2=O)NC(=O)C(C)=CC=CC(C)C(O)C(C)C(O)C(C)C(OC(C)=O)C1C (stereo not shown) [3-pyrrolidino-methyl-rifamycin SV, reference compound] | 0.06 (≈ 76.8 µM) | – | – | – |
| CON=Cc1c2c(O)c3c(O)c(C)c4c(c3c1O)C(=O)C(C)(OC=CC(OC)C(C)C(O)C(C)C(O)C(C)C(O)C(C)C=CC=C(C)C(=O)N2)O4 (stereo not shown) [25-DA-3-methoximinomethyl-rifamycin SV] | 0.34 (≈ 477 µM) | 560 | – | – |
| CCN(CC)Cc1c2c(O)c3c(O)c(C)c4c(c3c1O)C(=O)C(C)(OC=CC(OC)C(C)C(O)C(C)C(O)C(C)C(O)C(C)C=CC=C(C)C(=O)N2)O4 (stereo not shown) [25-DA-3-diethylaminomethyl-rifamycin SV, 25-desacetyl-3-diethylaminomethyl-rifamycin SV] | 1.26 (≈ 1700 µM) | – | – | – |
| COC1C=COC2(C)Oc3c(C)c(O)c4c(O)c(c(C=NN5CCN(C)CC5)c(O)c4c3C2=O)NC(=O)C(C)=CC=CC(C)C(O)C(C)C(O)C(C)C(OC(C)=O)C1C (stereo not shown) [3-(4-methyl-piperazinyl-iminomethyl)-rifamycin SV, reference compound] | – | 460 | – | 2.85 (≈ 3460 µM) |
